6 molecules from patent US11034672B1, “Tyrosine kinase inhibitor compositions, methods of making and methods of use” (Black Diamond Therapeutics, Inc., priority 2018, dated 2021) can be followed below.

What all share (assay type): cell-based
In assay [1] the target is T1, HER2 YVMA (Homo sapiens, UniProt P04626, INS775YVMA).
T1 construct: expressed in transfected cells; host or cells: BaF3 (murine pro-B)
The assay can be described thus: Activity for inhibiting HER2 (Table B), HER2 YVMA. The note with it: read-out: HER2 YVMA, potency code (IC50). As for the experimental part:
(§1) EC50 values were determined with the same application.

For assay [2], the target named is T2, HER2 S310F (Homo sapiens, UniProt P04626, S310F).
T2 construct: expressed in transfected cells; host or cells: BaF3 (murine pro-B)
The assay can be described thus: Activity for inhibiting HER2 (Table B), HER2 S310F. Conditions: read-out: HER2 S310F, potency code (IC50). The method, then:
as §1

In assay [3] the target is T3, HER2 WT (Homo sapiens, UniProt P04626). The assay is described as follows: Activity for inhibiting HER2 (Table B), HER2 WT.
T3 sequence (P04626 23-1255): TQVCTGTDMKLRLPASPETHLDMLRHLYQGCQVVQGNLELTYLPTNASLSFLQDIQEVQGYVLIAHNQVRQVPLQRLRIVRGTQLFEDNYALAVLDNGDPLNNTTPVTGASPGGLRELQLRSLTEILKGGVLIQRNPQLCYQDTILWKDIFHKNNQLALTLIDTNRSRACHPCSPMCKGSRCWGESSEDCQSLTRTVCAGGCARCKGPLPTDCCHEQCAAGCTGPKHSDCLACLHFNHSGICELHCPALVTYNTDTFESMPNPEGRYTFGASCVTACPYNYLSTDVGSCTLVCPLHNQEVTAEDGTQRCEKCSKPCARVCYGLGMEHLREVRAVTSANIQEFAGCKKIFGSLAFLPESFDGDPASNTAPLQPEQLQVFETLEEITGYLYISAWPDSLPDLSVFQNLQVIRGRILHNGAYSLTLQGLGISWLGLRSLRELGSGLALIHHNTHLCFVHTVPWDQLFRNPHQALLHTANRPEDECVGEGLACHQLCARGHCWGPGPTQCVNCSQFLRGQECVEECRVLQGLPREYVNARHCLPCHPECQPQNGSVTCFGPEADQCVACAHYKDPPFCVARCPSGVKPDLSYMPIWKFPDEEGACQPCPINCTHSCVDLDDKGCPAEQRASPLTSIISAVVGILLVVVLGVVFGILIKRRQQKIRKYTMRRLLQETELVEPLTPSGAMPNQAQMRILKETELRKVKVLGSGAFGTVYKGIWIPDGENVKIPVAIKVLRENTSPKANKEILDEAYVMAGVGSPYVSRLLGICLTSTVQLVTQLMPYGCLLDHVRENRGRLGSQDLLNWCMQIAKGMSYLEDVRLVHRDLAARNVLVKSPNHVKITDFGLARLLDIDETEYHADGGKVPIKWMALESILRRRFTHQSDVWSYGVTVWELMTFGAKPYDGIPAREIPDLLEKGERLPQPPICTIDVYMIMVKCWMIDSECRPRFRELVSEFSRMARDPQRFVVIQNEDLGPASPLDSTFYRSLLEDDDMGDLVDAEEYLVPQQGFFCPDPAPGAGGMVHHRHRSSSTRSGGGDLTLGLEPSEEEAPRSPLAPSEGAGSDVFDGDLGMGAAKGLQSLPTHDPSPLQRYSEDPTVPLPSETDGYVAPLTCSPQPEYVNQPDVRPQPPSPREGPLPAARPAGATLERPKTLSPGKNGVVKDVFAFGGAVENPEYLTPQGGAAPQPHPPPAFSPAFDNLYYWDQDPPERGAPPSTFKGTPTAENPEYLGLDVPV
In assay [4] the target is T4, EGFR V3 (Homo sapiens, UniProt P00533, DELINS30-297G).
T4 construct: expressed in transfected cells; host or cells: BaF3 (murine pro-B), retroviral pMXs-IRES-Blasticidin
T4 sequence (P00533 with tags, fused parts or gaps DELINS30-297G): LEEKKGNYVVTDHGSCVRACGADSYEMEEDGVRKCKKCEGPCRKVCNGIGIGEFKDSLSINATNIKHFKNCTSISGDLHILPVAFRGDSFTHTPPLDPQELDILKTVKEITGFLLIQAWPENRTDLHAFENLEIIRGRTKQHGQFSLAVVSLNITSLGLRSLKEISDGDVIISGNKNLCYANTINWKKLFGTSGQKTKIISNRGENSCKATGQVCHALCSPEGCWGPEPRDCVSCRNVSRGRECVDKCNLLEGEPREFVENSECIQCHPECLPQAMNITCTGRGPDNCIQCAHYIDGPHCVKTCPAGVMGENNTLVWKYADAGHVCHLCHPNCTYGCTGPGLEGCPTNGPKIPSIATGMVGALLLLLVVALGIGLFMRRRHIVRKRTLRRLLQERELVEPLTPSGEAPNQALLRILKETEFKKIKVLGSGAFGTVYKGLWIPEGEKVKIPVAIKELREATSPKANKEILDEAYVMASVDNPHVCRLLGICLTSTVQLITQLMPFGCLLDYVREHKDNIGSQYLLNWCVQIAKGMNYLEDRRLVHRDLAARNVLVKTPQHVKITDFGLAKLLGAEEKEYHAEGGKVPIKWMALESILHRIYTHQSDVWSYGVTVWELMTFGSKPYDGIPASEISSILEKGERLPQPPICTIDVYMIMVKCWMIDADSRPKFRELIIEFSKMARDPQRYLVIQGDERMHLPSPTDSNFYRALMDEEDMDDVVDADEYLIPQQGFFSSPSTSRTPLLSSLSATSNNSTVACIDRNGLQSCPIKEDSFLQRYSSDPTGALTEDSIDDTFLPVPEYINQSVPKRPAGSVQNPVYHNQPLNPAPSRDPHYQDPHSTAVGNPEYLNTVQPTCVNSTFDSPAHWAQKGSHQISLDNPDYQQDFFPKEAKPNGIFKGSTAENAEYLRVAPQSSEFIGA
The assay can be described thus: Activity for inhibiting EGFR (Table A), EGFR V3 (EGFR-Viii). The note with it: read-out: EGFR V3, potency code (IC50).

Assay [5] deals with T1, HER2 YVMA. The assay can be described thus: BaF3 cell proliferation assay, HER2 YVMA (Table B). Conditions: potency code, 3 days, CellTiterGlo, read-out: HER2 YVMA (Activity for Inhibiting HER2). In general terms: In ATP-based viability assays light output follows the ATP content of the culture.
In assay [6] the target is T3, HER2 WT. The assay is described as follows: BaF3 cell proliferation assay, HER2 WT (Table B). The note with it: potency code, 3 days, CellTiterGlo, read-out: HER2 WT (Activity for Inhibiting HER2).
Assay [7] concerns the target T4, EGFR V3. The assay can be described thus: BaF3 cell proliferation assay, EGFR V3 (Table A). Conditions: potency code, 3 days, CellTiterGlo, read-out: EGFR V3 (Activity for Inhibiting EGFR). Put shortly:
(§2)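 Mouse BaF3 cells were retrovirally transduced (pMXs-IRES-Blasticidin, VSV-G pseudotyped virus from HEK 293T) with the human EGFR or HER2 variant, selected in 10 μg/ml Blasticidin for one week, then made IL-3 independent. EC50 values come from proliferation of these lines.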

In assay [8] the target is T2, HER2 S310F. The assay can be described thus: BaF3 cell proliferation assay, HER2 S310F (Table B). The note with it: potency code, 3 days, CellTiterGlo, read-out: HER2 S310F (Activity for Inhibiting HER2).
Assay [9] has as its target T5, EGFR WT (Homo sapiens, UniProt P00533). The assay can be described thus: Activity for inhibiting EGFR (Table A), EGFR WT. The note with it: read-out: EGFR WT, potency code (IC50).
Assay [10] deals with T5, EGFR WT. The assay is described as follows: BaF3 cell proliferation assay, EGFR WT (Table A). Conditions: potency code, 3 days, CellTiterGlo, read-out: EGFR WT (Activity for Inhibiting EGFR). Put shortly: as §2
Assay [11] has as its target T6, EGFR SVD (Homo sapiens, UniProt P00533, DUP768-770).
T6 construct: expressed in transfected cells; host or cells: BaF3 (murine pro-B), retroviral pMXs-IRES-Blasticidin
The assay can be described thus: Activity for inhibiting EGFR (Table A), EGFR SVD. The note with it: read-out: EGFR SVD, potency code (IC50).

The target of assay [12] is T7, EGFR NPH (Homo sapiens, UniProt P00533, DUP771-773).
T7 construct: expressed in transfected cells; host or cells: BaF3 (murine pro-B), retroviral pMXs-IRES-Blasticidin
The assay is described as follows: Activity for inhibiting EGFR (Table A), EGFR NPH. The note with it: read-out: EGFR NPH, potency code (IC50).

In assay [13] the target is T6, EGFR SVD. The assay can be described thus: BaF3 cell proliferation assay, EGFR SVD (Table A). Conditions: potency code, 3 days, CellTiterGlo, read-out: EGFR SVD (Activity for Inhibiting EGFR). As for the experimental part:
(§3) Retroviral Production: EGFR mutants were subcloned into pMXs-IRES-Blasticidin (RTV-016, Cell Biolabs, San Diego, Calif.). Retroviral expression vector retrovirus was produced by transient transfection of HEK 293T cells with the retroviral EGFR mutant expression vector pMXs-IRES-Blasticidin (RTV-016, Cell Biolabs), pCMV-Gag-Pol vector and pCMV-VSV-G-Envelope vector. Briefly, HEK 293T/17 cells were plated in 100 mm collagen coated plate (354450, Corning Life Sciences, Tewksbury, Mass.) (4×10^5 per plate) and incubated overnight. The next day, retroviral plasmids (3 μg of EGFR mutant, 1.0 μg of pCMV-Gag-Pol and 0.5 μg pCMV-VSV-G) were mixed in 500 μl of Optimem (31985, Life Technologies). The mixture was incubated at room temperature for 5 min and then added to Optimem containing transfection reagent Lipofectamine (11668, Invitrogen) and incubated for 20 minutes. Mixture was then added dropwise to HEK 293T cells. The next day the medium was replaced with fresh culture medium and retrovirus was harvested @ 24 and 48 hrs.
(§4) Generation of EGFR mutant stable cell lines: BaF3 cells (1.5E5 cells) were infected with 1 ml of viral supernatant supplemented with 8 μg/ml polybrene by centrifuging for 30 min at 1000 rpm. Cells were placed in a 37° C. incubator overnight. Cells were then spun for 5 minutes to pellet the cells. Supernatant was removed and cells re-infected a fresh 1 ml of viral supernatant supplemented with 8 μg/ml polybrene by centrifuging for 30 min at 1000 rpm. Cells were placed in 37° C. incubator overnight. […] After 48 hours cells were selected for retroviral infection in 10 μg/ml Blasticidin for one week. Blasticidin resistant populations were washed twice in phosphate buffered saline before plating in media lacking IL-3 to select for IL-3 independent growth.
as §1

The target in assay [14] is T7, EGFR NPH. The assay can be described thus: BaF3 cell proliferation assay, EGFR NPH (Table A). Conditions: potency code, 3 days, CellTiterGlo, read-out: EGFR NPH (Activity for Inhibiting EGFR). The method, then: as §3, §4, §1
[15] abbreviates: Table B, read-out: HER2 WT, potency code (IC50).
Where [16] appears, read: text lists of compounds, read-out: IC50 value for inhibiting wild-type HER2.

Each structure is given as a SMILES string. Some results are limits rather than exact numbers.

T5 sequence (P00533 25-1210 N540K): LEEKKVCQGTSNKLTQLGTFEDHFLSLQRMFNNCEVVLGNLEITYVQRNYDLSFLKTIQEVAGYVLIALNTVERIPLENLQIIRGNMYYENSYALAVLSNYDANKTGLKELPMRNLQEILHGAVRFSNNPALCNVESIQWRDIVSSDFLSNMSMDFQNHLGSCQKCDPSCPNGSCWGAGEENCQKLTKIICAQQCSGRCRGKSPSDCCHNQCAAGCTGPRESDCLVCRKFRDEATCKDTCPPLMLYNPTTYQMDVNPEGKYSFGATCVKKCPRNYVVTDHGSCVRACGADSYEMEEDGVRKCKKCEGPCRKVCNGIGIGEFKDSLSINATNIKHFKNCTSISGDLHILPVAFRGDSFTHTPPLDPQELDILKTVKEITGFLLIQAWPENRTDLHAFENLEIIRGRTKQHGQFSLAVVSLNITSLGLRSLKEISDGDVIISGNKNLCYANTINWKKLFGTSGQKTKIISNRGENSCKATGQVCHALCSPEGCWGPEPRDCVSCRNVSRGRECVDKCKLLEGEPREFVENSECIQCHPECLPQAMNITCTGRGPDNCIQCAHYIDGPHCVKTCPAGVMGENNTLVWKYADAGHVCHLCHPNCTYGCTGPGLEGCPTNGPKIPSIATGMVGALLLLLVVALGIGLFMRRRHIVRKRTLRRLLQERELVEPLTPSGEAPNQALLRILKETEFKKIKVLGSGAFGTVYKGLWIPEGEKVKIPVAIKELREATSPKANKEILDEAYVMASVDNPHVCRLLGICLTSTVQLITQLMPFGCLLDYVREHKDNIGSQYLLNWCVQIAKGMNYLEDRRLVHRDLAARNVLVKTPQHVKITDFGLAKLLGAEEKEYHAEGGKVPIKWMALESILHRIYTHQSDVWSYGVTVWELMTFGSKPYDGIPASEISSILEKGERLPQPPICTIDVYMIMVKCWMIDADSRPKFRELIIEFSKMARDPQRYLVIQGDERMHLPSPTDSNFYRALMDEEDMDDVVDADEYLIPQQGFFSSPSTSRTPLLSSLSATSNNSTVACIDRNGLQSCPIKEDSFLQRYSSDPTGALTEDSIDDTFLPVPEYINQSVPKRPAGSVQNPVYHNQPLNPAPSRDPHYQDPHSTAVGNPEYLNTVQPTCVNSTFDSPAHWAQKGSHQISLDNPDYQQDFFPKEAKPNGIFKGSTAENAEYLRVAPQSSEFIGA
T1 sequence (P04626 with tags, fused parts or gaps INS775YVMA): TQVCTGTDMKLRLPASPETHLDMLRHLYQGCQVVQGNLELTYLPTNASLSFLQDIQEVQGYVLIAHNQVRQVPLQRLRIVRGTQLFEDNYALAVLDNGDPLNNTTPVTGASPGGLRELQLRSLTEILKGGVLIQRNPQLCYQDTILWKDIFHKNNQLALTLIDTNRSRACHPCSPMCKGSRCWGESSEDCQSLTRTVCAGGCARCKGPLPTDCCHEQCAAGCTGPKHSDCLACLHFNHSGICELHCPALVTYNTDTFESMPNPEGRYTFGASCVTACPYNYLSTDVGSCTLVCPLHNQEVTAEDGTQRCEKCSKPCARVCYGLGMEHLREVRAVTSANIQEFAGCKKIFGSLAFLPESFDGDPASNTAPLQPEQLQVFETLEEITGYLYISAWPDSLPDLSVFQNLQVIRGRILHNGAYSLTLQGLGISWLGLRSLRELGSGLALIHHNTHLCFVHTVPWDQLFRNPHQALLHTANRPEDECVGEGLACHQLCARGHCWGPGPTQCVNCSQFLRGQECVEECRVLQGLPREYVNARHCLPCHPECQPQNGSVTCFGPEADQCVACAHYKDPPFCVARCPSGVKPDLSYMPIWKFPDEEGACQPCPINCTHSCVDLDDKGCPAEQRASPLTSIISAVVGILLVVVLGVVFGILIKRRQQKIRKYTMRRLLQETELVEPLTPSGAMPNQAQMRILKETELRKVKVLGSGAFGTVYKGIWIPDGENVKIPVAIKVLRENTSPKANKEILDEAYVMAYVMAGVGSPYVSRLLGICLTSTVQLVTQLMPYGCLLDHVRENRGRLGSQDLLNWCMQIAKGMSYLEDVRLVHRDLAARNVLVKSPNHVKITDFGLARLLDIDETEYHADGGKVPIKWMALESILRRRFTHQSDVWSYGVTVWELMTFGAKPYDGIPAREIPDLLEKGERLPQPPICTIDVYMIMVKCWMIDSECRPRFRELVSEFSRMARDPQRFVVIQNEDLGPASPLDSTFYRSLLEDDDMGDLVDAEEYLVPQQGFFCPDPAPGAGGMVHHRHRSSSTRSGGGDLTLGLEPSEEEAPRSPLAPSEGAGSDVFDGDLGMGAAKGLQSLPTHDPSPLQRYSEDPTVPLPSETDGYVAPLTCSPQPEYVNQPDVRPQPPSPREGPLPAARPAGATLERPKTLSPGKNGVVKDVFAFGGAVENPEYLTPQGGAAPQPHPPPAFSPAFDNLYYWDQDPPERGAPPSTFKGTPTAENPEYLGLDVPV

Take `C=CC(=O)Nc1cc2c(Nc3ccc(OCc4ccccn4)c(Cl)c3)ncnc2cc1OCCN1CC(F)C1` [compound 34]: the IC50 on HER2 YVMA [1] is 50 to 100 nM; at HER2 S310F [2], 10 to 20 nM; at HER2 WT [3] (setting [15]), 10 to 20 nM; on HER2 WT [3] (setting [16]) it was ≤ 20 nM; on EGFR V3 [4], 30 to 50 nM; on HER2 YVMA [5], 50 to 100 nM. The IC50 on HER2 WT [6] lay within 10 to 20 nM; on EGFR V3 [7] it was 30 to 50 nM; on HER2 S310F [8], 10 to 20 nM; on EGFR WT [9], 500 to 1000 nM; on EGFR WT [10], 500 to 1000 nM.
In the case of `C=CC(=O)Nc1cc2c(Nc3ccc(OCc4ccccn4)c(Cl)c3)ncnc2cc1OCCN1CC2(COC2)C1` [compound 38], the IC50 is 50 to 100 nM at HER2 YVMA [1]; 20 to 30 nM on HER2 S310F [2]; 5 to 10 nM at HER2 WT [3] (setting [15]); ≤ 10 nM on HER2 WT [3] (setting [16]); 30 to 50 nM at EGFR V3 [4]; 50 to 100 nM at HER2 YVMA [5]. Also, the IC50 at HER2 WT [6] was 5 to 10 nM; at EGFR V3 [7] it was 30 to 50 nM; at HER2 S310F [8] it was 20 to 30 nM; on EGFR WT [9] it was 300 to 500 nM; at EGFR WT [10], 300 to 500 nM.
With `C=CC(=O)Nc1cc2c(Nc3ccc(OCc4ccccn4)c(Cl)c3)ncnc2cc1C#CC(C)(C)N1CCN(C)CC1` [compound 65], the IC50 at HER2 YVMA [1] is 50 to 100 nM; at HER2 S310F [2], 10 to 20 nM; on HER2 WT [3] (setting [15]) it was 10 to 20 nM; at HER2 WT [3] (setting [16]), ≤ 20 nM; at EGFR V3 [4], 20 to 30 nM; at HER2 YVMA [5], 50 to 100 nM. The IC50 on HER2 WT [6] was in the range of 10 to 20 nM; on EGFR V3 [7], 20 to 30 nM; on HER2 S310F [8] it was 10 to 20 nM; on EGFR WT [9] it was 500 to 1000 nM; on EGFR WT [10] it was 500 to 1000 nM.
With `CC#CC(=O)Nc1cc2c(Nc3ccc(OCc4ccccn4)c(Cl)c3)ncnc2cc1OC1CCN(C)C1` (stereo not shown) [compound 67], the IC50 was 50 to 100 nM on HER2 YVMA [1]; 10 to 20 nM on HER2 S310F [2]; 5 to 10 nM at HER2 WT [3] (setting [15]); ≤ 10 nM on HER2 WT [3] (setting [16]); 20 to 30 nM at EGFR V3 [4]; 50 to 100 nM on HER2 YVMA [5]. Further, the IC50 on HER2 WT [6] lay within 5 to 10 nM; at EGFR V3 [7], 20 to 30 nM; at HER2 S310F [8], 10 to 20 nM; at EGFR WT [9] it was 100 to 200 nM; on EGFR WT [10], 100 to 200 nM.
As to `C=CC(=O)Nc1cc2c(Nc3ccc(OCc4ccccn4)c(Cl)c3)ncnc2cc1OCCCN1CCN(C)CC1` [compound 69], the IC50 lay within 20 to 30 nM at HER2 YVMA [1]; 10 to 20 nM at HER2 S310F [2]; 20 to 30 nM at EGFR SVD [11]; 20 to 30 nM at EGFR NPH [12]; 10 to 20 nM on EGFR V3 [4]; 20 to 30 nM on EGFR SVD [13]. Besides, the IC50 at EGFR NPH [14] is 20 to 30 nM; at HER2 YVMA [5] it was 20 to 30 nM; at EGFR V3 [7], 10 to 20 nM; on HER2 S310F [8], 10 to 20 nM; on EGFR WT [9], 300 to 500 nM; on EGFR WT [10], 300 to 500 nM.
In the case of `C=CC(=O)Nc1cc2c(Nc3ccc(Oc4ccc(Cl)cc4)cc3)ncnc2cc1OCCN1CCOCC1` [compound 74], the IC50 lay in the range of 200 to 300 nM at HER2 S310F [2]; 100 to 200 nM on HER2 WT [3] (setting [15]); 50 to 100 nM on EGFR V3 [4]; 100 to 200 nM at HER2 WT [6]; 50 to 100 nM on EGFR V3 [7]; 200 to 300 nM at HER2 S310F [8]. The IC50 at EGFR WT [9] and on EGFR WT [10] was > 1000 nM each time.
